We go through 20 compounds from paper PMC3545278 (Journal of pharmaceutical and biomedical analysis, 2012).

Data set [1] can be described thus: Rapid equilibrium dialysis. It is filed as in vitro ADME. As to conditions: human, plasma, pH 7.4. Background: Equilibrium dialysis compares concentrations on both sides of a semipermeable membrane.
A short description of data set [2]: Ultrafiltration. As to conditions: human; for recovery at 20 min, 10 μM: human plasma; for fraction unbound at 20 min, 10 μM: plasma.
A short description of data set [3]: Ultrafiltration. It is filed as in vitro ADME, mouse. As to conditions: for recovery at 20 min, 10 μM / fraction unbound at 20 min, 10 μM: mouse; for recovery at 20 min, 10 μM / % Recovery from plasma / %PPB (UF): mouse plasma; for fraction unbound at 20 min, 10 μM: plasma; for % Recovery from plasma / %PPB (UF): 10 μM, mean ± SEM, n=3; for % Recovery from plasma: UF mass balance; for %PPB (UF): mass balance.

A short description of data set [4]: Plasma stability, 37°C for 20 min, human plasma. It is filed as in vitro ADME. As to conditions: 5% CO2, 20 min, mean ± SEM.
Data set [5] is described as follows: Rapid equilibrium dialysis. The format is in vitro ADME, mouse. As to conditions: for fraction unbound at 4 h, 10 μM: mouse, plasma, pH 7.4.
For data set [6] the following is noted: human, cited from earlier work.
The nature of the next data set: in vitro. As to conditions: human.
The conditions of data set [7]: longer than 20 min; cited from earlier work.
Data set [8] can be described thus: Plasma stability as stated in text, species not specified. The format is in vitro ADME. As to conditions: 20 minute incubation at 37°C.

Structures can show the parent of a compound that is named as a salt. Where two headings read alike, the source gives them in different places.

Take `CC[C@]1(O)C[C@@H]2CN(CCc3c([nH]c4ccccc34)[C@@](C(=O)OC)(c3cc4c(cc3OC)N(C)[C@H]3[C@@](O)(C(=O)OC)[C@H](OC(C)=O)[C@]5(CC)C=CCN6CC[C@]43[C@@H]65)C2)C1` [Vinblastine]: the fraction unbound (usually the share of the substance not bound to proteins or other matrix) at 4 h, 10 μM is 0.113 in data set [1] and 0.073 in data set [5]. In addition, the values for the recovery at 20 min, 10 μM in “Ultrafiltration [2]” and in “Ultrafiltration [3]” were 79.1 ± 2.1% and 87.5 ± 2.5%, respectively. The fraction unbound at 20 min, 10 μM in “Ultrafiltration [3]” is 0.174. For the same compound, the “%Stability” value in data set [4] was 97.5±3.1%.

`Nc1ccc(S(=O)(=O)Nc2ncccn2)cc1` [Sulfadiazine]: in the data set “Ultrafiltration [3]”, the recovery at 20 min, 10 μM stood at 108 ± 2% and the fraction unbound at 20 min, 10 μM is 0.403. The same compound showed a fraction unbound at 4 h, 10 μM in data set [5] of 0.47.

In “Ultrafiltration [3]”, `Cc1ccnc(NS(=O)(=O)c2ccc(N)cc2)n1` [Sulfamerazine] had a recovery at 20 min, 10 μM of 107 ± 1.8% and a fraction unbound at 20 min, 10 μM of 0.184. In addition, the fraction unbound at 4 h, 10 μM in data set [5] was 0.195.

Take `O=S(=O)(Nc1ccccc1)c1ccc(NC(=S)Nc2ccccc2)cc1` [LED209E]: in “Ultrafiltration [3]”, the “% Recovery from plasma” value is 101.0±1.5% and the “%PPB (UF)” value was determined as 99.3±0.1%. Besides, in data set [5] (mouse plasma, 10 μM, 4 hours at 37°C, mean ± SEM, n=3), the “%PPB (RED)” value amounted to 99.2±0.1%.

On to `O=C(CCCCCCC(=O)Nc1ccccc1)NO` [Vorinostat], for which the fraction unbound at 4 h, 10 μM is 0.241 in [1] and 0.536 in data set [5]. Moreover, the values for the recovery at 20 min, 10 μM in “Ultrafiltration [2]” and in “Ultrafiltration [3]” were 100 ± 2.1% and 98.7 ± 0.6%, respectively. In addition, the fraction unbound at 20 min, 10 μM in the data set “Ultrafiltration [2]” was 0.396; in “Ultrafiltration [3]”, 0.622. Moreover, in data set [4], the “%Stability” value amounted to 101.1±1.9%.

On to `CC(C)NCC(O)COc1cccc2ccccc12` (stereo not drawn) [Propranolol HCl], for which the fraction unbound at 4 h, 10 μM in data set [1] was 0.166; in data set [5], 0.264. The results for the recovery at 20 min, 10 μM in “Ultrafiltration [2]” and in the data set “Ultrafiltration [3]” were 100 ± 1.6% and 104 ± 7.6%, respectively. In addition, the fraction unbound at 20 min, 10 μM in the data set “Ultrafiltration [2]” was 0.328; in “Ultrafiltration [3]”, 0.326. Further, the “%Stability” value in data set [4] worked out at 98.7±1.2%. In addition, the “%PPB (Literature)” value in [6] (ref 8) is 65–70 [8] %.

With `CCCCNC(=O)NS(=O)(=O)c1ccc(C)cc1` [Tolbutamide], the recovery at 20 min, 10 μM in the data set “Ultrafiltration [2]” is 97.4 ± 0.2%; in “Ultrafiltration [3]”, 106 ± 3.1%. The “%Stability” value in [4] is given as 102.2±0.8%.

Take `CC(C)(C)NCC(O)c1cc(O)cc(O)c1` (stereo not drawn) [Terbutaline]: the fraction unbound at 4 h, 10 μM is 0.627 in data set [1] and 0.638 in data set [5]. For the same compound, the recovery at 20 min, 10 μM in the data set “Ultrafiltration [2]” turned out to be 104 ± 2.1%; in the data set “Ultrafiltration [3]” it was 99.6 ± 8.4%. The fraction unbound at 20 min, 10 μM in the data set “Ultrafiltration [2]” was 0.819; in the data set “Ultrafiltration [3]”, 0.81. Further, the “%Stability” value in [4] was determined as 106.5±3.3%. Moreover, the figures for the “%PPB (Literature)” value in data set [6] (ref 21) and in data set [6] (ref 23) were 20% and 25%, respectively.

`OC(CNc1ccccc1)Cn1c2ccc(Br)cc2c2cc(Br)ccc21` (stereo not drawn) [P7C3]: in “Ultrafiltration [3]”, the “% Recovery from plasma” value turned out to be 100.0±9.4%.

On to `CC[C@H](C)C(=O)O[C@H]1C[C@@H](C)C=C2C=C[C@H](C)[C@H](CC[C@@H]3C[C@@H](O)CC(=O)O3)[C@H]21` [Lovastatin], for which the fraction unbound at 4 h, 10 μM in data set [1] was 0.004; in data set [5] it was 0.084. Besides, the recovery at 20 min, 10 μM in the data set “Ultrafiltration [2]” amounted to 87.6 ± 3.6%; in the data set “Ultrafiltration [3]” it was 82.1 ± 8.8%. Besides, the results for the fraction unbound at 20 min, 10 μM in “Ultrafiltration [2]” and in the data set “Ultrafiltration [3]” were 0.026 and 0.029, respectively. For the same compound, the “%Stability” value in data set [4] stood at 96.2±5.1%. Besides, the “%PPB (Literature)” value in [6] (ref 21) is >95 [21] %.

As to `COc1cc(NS(=O)(=O)c2ccc(N)cc2)nc(OC)n1` [Sulfadimethoxine], in the data set “Ultrafiltration [3]”, the recovery at 20 min, 10 μM came to 109 ± 1.1% and the fraction unbound at 20 min, 10 μM is 0.04. Moreover, in data set [5], the fraction unbound at 4 h, 10 μM was 0.044.

In the case of `CC(=O)CC(c1ccccc1)c1c(O)c2ccccc2oc1=O` (stereo not drawn) [Warfarin], the recovery at 20 min, 10 μM in “Ultrafiltration [3]” came out at 99.8 ± 3.9%; in the data set “in vitro”, 94.2 ± 3.8%. Also, the “%Stability” value in [4] stood at 100.4±4.5%.

In “Ultrafiltration [3]”, `CS(=O)(=O)c1ccc(C(=O)Nc2ccc(Cl)c(-c3ccccn3)c2)c(Cl)c1` [Vismodegib] showed a recovery at 20 min, 10 μM of 94.3 ± 3.7% and a fraction unbound at 20 min, 10 μM of 0.025. The fraction unbound at 4 h, 10 μM in data set [5] was 0.009.

On to `CC(=O)Nc1ccc(O)cc1` [Acetaminophen], for which the fraction unbound at 4 h, 10 μM was 0.79 in [1] and 0.611 in data set [5]. Besides, the values for the recovery at 20 min, 10 μM in “Ultrafiltration [2]” and in “Ultrafiltration [3]” were 102.6 ± 0.9% and 97.2 ± 2.5%, respectively. Moreover, the fraction unbound at 20 min, 10 μM in “Ultrafiltration [2]” is 0.733; in the data set “Ultrafiltration [3]” it was 0.701. Moreover, in data set [4], the “%Stability” value amounted to 98.6±2.6%. The “%PPB (Literature)” value in data set [6] (ref 20) is 24±7 [20] %.

As to `Cc1nnc(NS(=O)(=O)c2ccc(N)cc2)s1` [Sulfamethiazole], the fraction unbound at 4 h, 10 μM in data set [1] is 0.108; in [5] it was 0.353. For the same compound, the recovery at 20 min, 10 μM in “Ultrafiltration [2]” was 99.4 ± 1.7%; in “Ultrafiltration [3]”, 104 ± 1.2%. Besides, the fraction unbound at 20 min, 10 μM in “Ultrafiltration [2]” was 0.184; in “Ultrafiltration [3]”, 0.348. Further, the “%Stability” value in data set [4] is 101.9±0.4%. The “%PPB (Literature)” value in [6] (ref 22) is 85–90 [22] %.

Turning to `O=C(Nc1cccc2cccnc12)c1ccc(N2C(=O)[C@@H]3[C@H](C2=O)[C@@H]2C=C[C@H]3C2)cc1` [IWR1], in data set [7], the “stability in plasma over longer periods of time” value was “known instability”. Besides, the stability in plasma result in [8] is “stable”. Moreover, in the data set “Ultrafiltration [3]”, the “% Recovery from plasma” value stood at 81.1±2.1% and the “%PPB (UF)” value is listed as 95.5±0.9%.

Consider `COc1ccc2c(c1)c(CC(=O)O)c(C)n2C(=O)c1ccc(Cl)cc1` [Indomethacin], for which the fraction unbound at 4 h, 10 μM in [1] was 0.002; in [5], 0.013. The recovery at 20 min, 10 μM turned out to be 89.7 ± 7.2% in the data set “Ultrafiltration [2]” and 99 ± 9.7% in “Ultrafiltration [3]”. The values for the fraction unbound at 20 min, 10 μM in the data set “Ultrafiltration [2]” and in “Ultrafiltration [3]” were 0.004 and 0.011, respectively. For the same compound, the “%Stability” value in data set [4] stood at 111.0±8.8%. Besides, the “%PPB (Literature)” value in data set [6] (ref 23) was 99 [23] %.

For the compound `Nc1ccc(S(=O)(=O)Nc2nccs2)cc1` [Sulfathiazole], in “Ultrafiltration [3]”, the recovery at 20 min, 10 μM is 108 ± 2.1% and the fraction unbound at 20 min, 10 μM was 0.402. In data set [5], this compound gave a fraction unbound at 4 h, 10 μM of 0.418.

Take `CC(=O)O[C@H]1C(=O)[C@@]2(C)[C@H]([C@H](OC(=O)c3ccccc3)[C@]3(O)C[C@H](OC(=O)[C@H](O)[C@@H](NC(=O)c4ccccc4)c4ccccc4)C(C)=C1C3(C)C)[C@]1(OC(C)=O)CO[C@@H]1C[C@@H]2O` [Paclitaxel]: the fraction unbound at 4 h, 10 μM in data set [1] is 0.03; in data set [5], 0.024. Also, the results for the recovery at 20 min, 10 μM in the data set “Ultrafiltration [2]” and in “Ultrafiltration [3]” were 87.6 ± 2.2% and 90.8 ± 3.2%, respectively. Moreover, the fraction unbound at 20 min, 10 μM is 0.132 in “Ultrafiltration [2]” and 0.046 in “Ultrafiltration [3]”. Besides, the “%Stability” value in data set [4] stood at 104.8±2.0%. In addition, the “%PPB (Literature)” value in data set [6] (ref 23) is 88 [23] %.

With `C[C@]12CCC(=O)C=C1CC[C@@H]1[C@@H]2[C@@H](O)C[C@@]2(C)[C@H]1CC[C@]2(O)C(=O)CO` [Hydrocortisone], the fraction unbound at 4 h, 10 μM is 0.279 in [1] and 0.412 in [5]. The recovery at 20 min, 10 μM in the data set “Ultrafiltration [2]” was 104 ± 3.3%; in “Ultrafiltration [3]” it was 102 ± 4%. The fraction unbound at 20 min, 10 μM was 0.368 in the data set “Ultrafiltration [2]” and 0.519 in “Ultrafiltration [3]”. In data set [4], the “%Stability” value is listed as 98.5±1.1%. The figures for the “%PPB (Literature)” value in [6] (ref 8) and in data set [6] (ref 23) were 65% and 80%, respectively.
